Experimental data taken from patent US20220170096A1, “INTERLEUKIN-4-INDUCED GENE 1 (IL4I1) AS A BIOMARKER AND USES THEREOF” (DEUTSCHES KREBSFORSCHUNGSZENTRUM STIFTUNG DES OEFFENTLICHEN …, priority 2019, published 2022).

Assays:
AHR = AHR target gene expression (microarray, qRT-PCR) in glioblastoma cells treated with IL4I1 metabolites; format: cell-based, human; details: U-87MG cells; for induction of the AHR target gene TIPARP (mRNA): 24 h, KynA 50 μM; for modulation of AHR target genes / AHR activation signature genes: 40 μM for 24 h (microarray), TIPARP mRNA 24 h
Description: Array datasets—The affymetrix microarray chips “human gene 2.0 ST” were analyzed using the oligo package and annotated using NetAffx (14). Raw CEL files were RMA normalized and summarized. Differential gene expression was performed using the limma pipeline for microarrays (15).
For treatment of adherent cells with established and hypothetical AHR ligands, 4×10^5 cells per well were seeded in six well plates and incubated for 24 h prior to treatment. Non-adherent cells were seeded in 24 well plates at 5×10^5 cells in 1 mL and treated immediately. For verification of the generated AHR signature, cells were treated with the established AHR agonist Kyn (50 μM, SigmaAldrich, K8625) for 24 h. […] When using the AHR antagonist SR1 (1 μM, Merck Millipore, 182706), cells were treated for 24 h alone or in combination with AHR ligands.
Total RNA was harvested from cultured cells using the RNeasy Mini Kit (Qiagen, 80204) followed by cDNA synthesis using the High Capacity cDNA reverse transcriptase kit (Applied Biosystems, 4368813). A StepOne Plus real-time PCR system (Applied Biosystems) was used to perform real-time PCR of cDNA samples using SYBR Select Master mix (Thermo Scientific, 4309155). Data was processed and analysed using the StepOne Software v 2.3. Relative quantification of target genes was done against RNA18S as reference gene using the […] method.

U-87MG cells = assay: Metabolites in supernatants of U-87MG cells treated with I3P; format: cell-based, human; details: increasing concentrations of I3P, 24 h
Description: For treatment of adherent cells with established and hypothetical AHR ligands, 4×10^5 cells per well were seeded in six well plates and incubated for 24 h prior to treatment. Non-adherent cells were seeded in 24 well plates at 5×10^5 cells in 1 mL and treated immediately. For verification of the generated AHR signature, cells were treated with the established AHR agonist Kyn (50 μM, SigmaAldrich, K8625) for 24 h. In order to investigate the potential of direct and downstream IL4I1 metabolites to activate the AHR, cells were treated with […] When using the AHR antagonist SR1 (1 μM, Merck Millipore, 182706), cells were treated for 24 h alone or in combination with AHR ligands. […] Consumption of phenylalanine, tyrosine and Trp by IL4I1-expressing and non-expressing U-87MG and U-251MG cells was assessed by quantification of the amino acids in the cell culture supernatants after 120 h incubation. […] The derivatization product was separated at 42° C. on an Acquity BEH C18 column (Waters) using an Acquity H-class UPLC system (Waters) coupled to an Acquity fluorescence detector (FLR) (Waters). Samples were analyzed on the UPLC as described before by Yang et. al., 2015^21. […] Trp was detected by fluorescence (Acquity FLR detector, Waters, excitation: 254 nm, emission: 401 nm). Standards were used for quantification (Sigma). […] For targeted quantification of the metabolites, MRM mode was used. […]

GFP-tagged Ahr = molecular target: T1, GFP-tagged Ahr (Mus musculus, UniProt P30561); assay: AHR nuclear translocation assay in GFP-Ahr expressing tao BpRc1c cells; format: cell-based, murine; details: 25 μM, 4 h
T1 construct: expressed in transfected cells; host or cells: murine hepatoma tao BpRc1 cells (deficient of endogenous Ahr), retroviral transfection, tet-off system
T1 sequence (P30561 10-848): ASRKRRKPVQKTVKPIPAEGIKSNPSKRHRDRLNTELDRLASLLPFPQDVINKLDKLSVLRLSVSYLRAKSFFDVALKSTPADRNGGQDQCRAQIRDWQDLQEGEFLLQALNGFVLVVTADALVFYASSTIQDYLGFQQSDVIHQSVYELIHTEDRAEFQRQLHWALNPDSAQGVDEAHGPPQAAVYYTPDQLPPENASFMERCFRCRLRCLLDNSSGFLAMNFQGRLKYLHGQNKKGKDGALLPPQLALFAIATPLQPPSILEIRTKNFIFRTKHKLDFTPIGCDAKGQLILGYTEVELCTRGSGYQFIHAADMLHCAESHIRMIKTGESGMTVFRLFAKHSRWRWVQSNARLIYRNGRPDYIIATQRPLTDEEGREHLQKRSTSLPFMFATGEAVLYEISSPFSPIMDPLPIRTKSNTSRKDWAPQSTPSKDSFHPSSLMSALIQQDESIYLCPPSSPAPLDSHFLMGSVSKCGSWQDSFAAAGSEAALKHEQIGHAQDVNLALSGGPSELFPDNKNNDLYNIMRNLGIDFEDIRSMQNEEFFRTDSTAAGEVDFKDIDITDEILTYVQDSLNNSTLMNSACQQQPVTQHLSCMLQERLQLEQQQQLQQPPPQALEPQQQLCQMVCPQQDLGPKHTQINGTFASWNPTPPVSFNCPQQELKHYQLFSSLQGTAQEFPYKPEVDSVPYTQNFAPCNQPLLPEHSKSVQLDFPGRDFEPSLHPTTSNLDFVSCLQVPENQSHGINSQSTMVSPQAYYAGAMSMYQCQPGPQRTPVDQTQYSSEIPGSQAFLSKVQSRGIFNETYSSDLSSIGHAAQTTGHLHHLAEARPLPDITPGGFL
Description: Stably transfected tao BpRc1c cells, expressing a GFP-tagged Ahr under tetracycline control, were used to visualize nuclear translocation of Ahr.
For induction of GFP-Ahr expression in the transgenic tao BpRc1c cells, cells were taken off tetracycline 24 h before translocation assays. Assays were performed in black clear bottom 96-well plates (BD, #353219) with 7500 cells/well in 150 μl/well. Metabolites were added in 50 μL/well induction medium. Cells were exposed for 4h to 25 μM PP, HPP, and I3P respectively. Medium was discarded and cells fixed with pre-warmed 3.7% formaldehyde in PBS (10 min at RT). After fixation cells were washed with detergent buffer (DB, 0.01% Tween20 in PBS, Sigma Aldrich), followed by permeabilization with 0.1% Triton X-100 in PBS (Sigma Aldrich) for 15 min at RT. Cells were washed twice with DB and incubated with 0.4 ng/ml Hoechst 33342 (Sigma Aldrich) for 30 min at RT protected from light. After washing with DB and PBS cells were stored in PBS at 4° C. until translocation analysis. Translocation by KynA was monitored by live cell imaging after 3 h of exposure including the appropriate negative medium control. Translocation of Ahr by the different metabolites was monitored on a BD Pathway Imager 855.

[1] = Conversion of I3P to kynurenic acid in PBS with or without H2O2 (HPLC); format: physicochemical; details: 3.33 mg/mL I3P in PBS, 24 h, with or without 1 mM H2O2
Description: Black, lowest peak: 3.33 mg/mL I3P in phosphate buffered saline (PBS) incubated for 24 h. Grey peak: 3.33 mg/mL I3P incubated in PBS in the presence of 1 mM H2O2 for 24 h (n=2). c-e, TIPARP mRNA expression in U-87MG cells treated with IAA (c), ILA (d), I3CA (e) or vehicle for 24 h (n=3). f, TIPARP mRNA expression in shCtrl and shAHR U-87MG cells treated with 50 μM KynA or vehicle for 24 h (n=3). g, Representative images of GFP-Ahr expressing tao BpRc1c cells treated with either vehicle or 50 μM KynA for 1 h. n values represent independent experiments. Data are presented as mean±S.E.M and were analyzed by two-tailed paired student's t-test (a, b, h) or repeated measures ANOVA with Dunnett's multiple comparisons test (c, e-g). *P<0.05, **P<0.01, ***P<0.001, ****P<0.0001. n.s., not significant.

| SMILES | induction of the AHR target gene TIPARP (mRNA) (AHR) | IAA, I3CA and kynurenic acid in the cell supernatants after treatment (U-87MG cells) | nuclear translocation of the AHR (GFP-tagged Ahr) | formation of kynurenic acid from I3P [1] | modulation of AHR target genes / AHR activation signature genes (AHR) |
| --- | --- | --- | --- | --- | --- |
| O=Cc1c[nH]c2ccccc12 [I3CA, indole-3-carboxaldehyde] | induced TIPARP transcripts |  |  |  |  |
| O=C(O)C(O)Cc1c[nH]c2ccccc12 (stereo not shown) [I3L, indole-3-lactic acid] | did not observe relevant induction |  |  |  |  |
| O=C(O)C(=O)Cc1c[nH]c2ccccc12 [I3P, indole-3-pyruvic acid] |  | dose-dependent increase | observed only in response to I3P | formed spontaneously from I3P, which was enhanced in the presence of H2O2 | significant regulation |
| O=C(O)C(=O)Cc1ccccc1 [PP, phenylpyruvic acid] |  |  |  |  | did not elicit relevant modulation |
